Reference: ChEMBL document CHEMBL1141818, “Annonaceous acetogenins: recent progress” (J Nat Prod, 1999)
In brackets after ≈: the same amount, converted by molar mass.

Tests used:
HCT-8 = assay: Cytotoxicity against human HCT8 cells; type: functional, cell-based
A549 = assay: Cytotoxicity against human A549 cells; type: functional; details: for EC50: Homo sapiens, A549, read-out: ED50 (the source's name)
MIA PaCa-2 = assay: Cytotoxicity against human MIA PaCa2 cells; type: functional; details: for EC50: Homo sapiens, MIA PaCa-2, read-out: ED50 (the source's name)
A498 = assay: Cytotoxicity against human A-498 cells; type: functional; details: for EC50: Homo sapiens, A498, read-out: ED50 (the source's name)
Artemia = assay: (§1) Toxicity in brine shrimp; type: organism-based; details: in vivo
HT-29 = assay: Cytotoxicity against human HT-29 cells; type: functional; details: for EC50: Homo sapiens, HT-29, read-out: ED50 (the source's name)
MCF7 = assay: Cytotoxicity against human MCF7 cells; type: functional; details: for EC50: Homo sapiens, MCF7, read-out: ED50 (the source's name)
PC-3 = assay: Cytotoxicity against human PC-3 cells; type: functional; details: for EC50: Homo sapiens, PC-3, read-out: ED50 (the source's name)
Blattella germanica [1] = assay: Ratio of LT50 for Blattella germanica Muncie second instars to LT50 for Blattella germanica Jwax second instars; type: functional
Blattella germanica [2] = assay: Ratio of LT50 for Blattella germanica Muncie fifth instars to LT50 for Blattella germanica Jwax fifth instars; type: functional
KB = assay: Cytotoxicity against human KB cells; type: functional, cell-based; details: for IC50: Homo sapiens, KB
Bel-7402 = assay: Cytotoxicity against human Bel-7402 cells; type: functional, cell-based
HL-60 = assay: Cytotoxicity against human HL-60 cells; type: functional, cell-based
A2780 = assay: Cytotoxicity against human A2780 cells; type: functional, cell-based
[3] = as §1; type: organism-based; details: artemia, in vivo

CCCCCCCCCCCC[C@H](O)[C@@H]1CC[C@H]([C@H](O)CCCCC(O)CCCCC[C@@H](O)CC2=C[C@@](C)(O)OC2=O)O1 (stereo partly drawn)
IC50 (HCT-8): < 10 µg/mL

CCCCCCCCCC[C@@H](O)[C@H]1CC[C@@H]([C@H]2CC[C@H]([C@H](O)CCCCCCCCCC[C@@H]3CC(CC(C)=O)C(=O)O3)O2)O1 (mixture of isomers)
ED50 (A549): 4.6 ×10⁻⁴ ug/ml | EC50 (MIA PaCa-2): 0.069 µg/mL | EC50 (A498): 0.49 µg/mL | LC50 (Artemia): 2 ×10⁻² ug/ml | EC50 (HT-29): 1.6 µg/mL | ED50 (MCF7): 1.3 ×10⁻⁸ ug/ml | EC50 (PC-3): 2.8 µg/mL

CCCCCCCCCC[C@H](O)[C@H]1CC[C@H]([C@H](O)CCCCCC(O)CCCCCCC2CC(CC(C)=O)C(=O)O2)O1 (mixture of isomers)
EC50 (A549): 0.21 µg/mL | EC50 (MIA PaCa-2): 0.0095 µg/mL | EC50 (A498): 0.0067 µg/mL | LC50 (Artemia): 9.7 ×10⁻² ug/ml | EC50 (HT-29): 0.35 µg/mL | EC50 (MCF7): 0.0011 µg/mL | EC50 (PC-3): 2.24 µg/mL

CCCCCCCCCCCC[C@H](O)[C@H]1CC[C@H]([C@H](O)CCCCCC(O)CCCCCCC2CC(CC(C)=O)C(=O)O2)O1 (mixture of isomers) [(2,4-CIS/TRANS)-SQUAMOXINE B]
EC50 (A549): 0.0038 µg/mL | ED50 (MIA PaCa-2): 8.3 ×10⁻⁴ ug/ml | EC50 (A498): 0.004 µg/mL | LC50 (Artemia): 4.6 ×10⁻² ug/ml | EC50 (HT-29): 0.0027 µg/mL | EC50 (MCF7): 0.0014 µg/mL | EC50 (PC-3): 0.05 µg/mL

CCCCCCCCCC[C@H](O)[C@H]1CC[C@H]([C@H]2CC[C@H]([C@H](O)CCCCCCCCCC[C@@H]3CC(CC(C)=O)C(=O)O3)O2)O1 (mixture of isomers) [BULLATACINONE]
EC50 (A549): 1.9 µg/mL | EC50 (MIA PaCa-2): 1.1 µg/mL | EC50 (A498): 1.8 µg/mL | LC50 (Artemia): 7.4 ×10⁻² ug/ml | EC50 (HT-29): 1.7 µg/mL | EC50 (MCF7): 1.8 µg/mL | EC50 (PC-3): 2.6 µg/mL

CCCCCCCCCC[C@H](O)[C@@H](O)CCCC[C@H]1CC[C@H]([C@H]2CC[C@H]([C@H](O)CCCCC[C@@H](O)CC3=C[C@H](C)OC3=O)O2)O1 (stereo in doubt) [GLACIN B]
ED50 (A549): 1.6 ×10⁻¹ ug/ml | ED50 (MIA PaCa-2): 2.8 ×10⁻¹ ug/ml | ED50 (A498): 1.4 µg/mL (≈ 2.19 µM) | LC50 (Artemia): 3.1 ×10⁻¹ ug/ml | ED50 (HT-29): 1.9 ×10⁻² ug/ml | ED50 (MCF7): 1.8 ×10⁻³ ug/ml | ED50 (PC-3): 1.2 µg/mL (≈ 1.88 µM)

CCCCC[C@H](O)[C@H](O)CCC[C@H](O)[C@H]1CC[C@H]([C@H]2CC[C@H]([C@H](O)CCCCCCCCCCCCC3=C[C@H](C)OC3=O)O2)O1 (stereo in doubt; 97) [PURPUREDIOLIN]
ED50 (A549): 4.4 ×10⁻¹ ug/ml | ED50 (MIA PaCa-2): 1.4 µg/mL (≈ 2.19 µM) | EC50 (A498): 1.4 µg/mL (≈ 2.19 µM) | LC50 (Artemia): 7 ×10⁻² ug/ml | EC50 (MCF7): 0.92 µg/mL (≈ 1.44 µM) | ED50 (PC-3): 3.5 ×10⁻¹ ug/ml

CC1(C)C(C=C(Cl)Cl)C1C(=O)OC(C#N)c1cccc(Oc2ccccc2)c1 (stereo not drawn) [ALPHA-CYPERMETHRIN]
Ratio (Blattella germanica [1]): 2

CCCCCCCCCCCC[C@H](O)[C@@H]1CC[C@@H]([C@@H](O)CCCCCCC(O)CCCCC[C@@H](O)CC2=C[C@H](C)OC2=O)O1 (stereo partly drawn) [ANNOMONTACIN]
Ratio (Blattella germanica [2]): 0.2 | Ratio (Blattella germanica [1]): 0.6

CCCCCCCCCCC(O)C1CCC(C2CCC(C(O)CCCCCCCC[C@H](O)CC3=C[C@@H](C)OC3=O)O2)O1 (stereo partly drawn) [ASIMICIN]
Ratio (Blattella germanica [2]): 1.6 | Ratio (Blattella germanica [1]): 0.9

CNC(=O)Oc1cccc2c1OC(C)(C)O2 [BENDIOCARB]
Ratio (Blattella germanica [2]): 0.9 | Ratio (Blattella germanica [1]): 2.5

CCCCCCCCCC[C@@H](O)[C@H]1CC[C@H]([C@H]2CC[C@H]([C@H](O)CCCCCCCC[C@@H](O)CCCC3=C[C@H](C)OC3=O)O2)O1 [BULLACIN]
ED50 (A549): 9 ×10⁻⁷ ug/ml | EC50 (MIA PaCa-2): 0.41 µg/mL (≈ 0.658 µM) | EC50 (A498): > 1 µg/mL | LC50 (Artemia): 1.9 ×10⁻² ug/ml | EC50 (HT-29): 0.0045 µg/mL (≈ 0.00722 µM) | ED50 (MCF7): 2.5 ×10⁻⁷ ug/ml | EC50 (PC-3): > 1 µg/mL

CCCCCCC(O)CCC[C@H](O)[C@@H]1CC[C@@H]([C@@H]2CC[C@H]([C@H](O)CCCCCCCCCCCCC3=C[C@H](C)OC3=O)O2)O1 (stereo partly drawn) [CAROLIN A]
ED50 (KB): 1 ×10⁻⁷ ug/ml

CCCCCC(O)CCCC[C@H](O)[C@@H]1CC[C@@H]([C@@H]2CC[C@H]([C@H](O)CCCCCCCCCCCCC3=C[C@H](C)OC3=O)O2)O1 (stereo partly drawn) [CAROLIN B]
ED50 (KB): 5 ×10⁻⁶ ug/ml

CCOP(=S)(OCC)Oc1nc(Cl)c(Cl)cc1Cl [CHLORPYRIFOS]
Ratio (Blattella germanica [2]): 8 | Ratio (Blattella germanica [1]): 3.8

CCCCCCCCCCCC[C@@H](O)[C@H]1CC[C@H]([C@H](O)CCCCCCCCCC[C@@H](O)CC2=C[C@@](C)(O)OC2=O)O1 [DONNAIENIN A]
IC50 (HCT-8): < 10 µg/mL | IC50 (KB): < 1 µg/mL

CCCCCCCCCCCCCC[C@H](O)[C@@H](O)CC[C@H](O)[C@@H]1CC[C@@H](CCCCC[C@@H](O)CC2=C[C@@](C)(O)OC2O)O1 (stereo partly drawn) [DONNAIENIN B]
IC50 (KB): 10 µg/mL (≈ 16.3 µM)

CCCCCCCCCCCC[C@@H](O)[C@H]1CC[C@H]([C@H](O)CCCC[C@H](O)CCCCC[C@H](CC2=C[C@@](C)(O)OC2=O)OC(C)=O)O1 [DONNAIENIN C]
IC50 (HCT-8): > 10 µg/mL | IC50 (Bel-7402): 7.1 µg/mL (≈ 10.8 µM) | IC50 (KB): > 10 µg/mL

CCCCCCCCCCCC[C@@H](O)[C@H](O)CC[C@@H](O)[C@H](O)CCCC[C@H](O)CCCCC[C@H](CC1=C[C@@](C)(O)OC1=O)OC(C)=O [DONNAIENIN D]
IC50 (HCT-8): > 10 µg/mL | IC50 (Bel-7402): > 10 µg/mL | IC50 (KB): > 10 µg/mL

CCCCCCCCCCCCCC[C@H](O)[C@@H]1C[C@@H](O)[C@@H]([C@@H](O)CC[C@@H](O)CCCCC[C@@H](O)CC2=C[C@H](C)OC2=O)O1 [DONNAIENIN]
IC50 (HCT-8): 6.6 µg/mL (≈ 10.8 µM) | IC50 (Bel-7402): 6.7 µg/mL (≈ 10.9 µM) | IC50 (KB): > 10 µg/mL

CCCCCCCCCCCC[C@H](O)[C@H](O)CC[C@H](O)[C@@H]1CC[C@@H](C[C@H](O)CCCCC[C@@H](O)CC2=C[C@@](C)(O)OC2=O)O1 [GARDNERININ]
IC50 (HCT-8): 6.6 µg/mL (≈ 10.5 µM) | IC50 (Bel-7402): > 10 µg/mL | IC50 (KB): > 10 µg/mL

CCCCCCCCCCCCCC[C@@H](O)[C@H](O)CC[C@H](O)[C@@H]1CC[C@@H](CCCCC[C@@H](O)CC2=C[C@H](C)OC2=O)O1 [GIGANTETROCIN A]
Ratio (Blattella germanica [2]): 1.5 | Ratio (Blattella germanica [1]): 0.9

CCCCCCCCCCCC[C@@H](O)[C@H]1CC[C@H]([C@H](O)CCCCC(O)CCCCC[C@@H](O)CC2=C[C@@](C)(O)OC2=O)O1 (stereo partly drawn) [GONIODONIN]
IC50 (HCT-8): < 10 µg/mL

CC1(C)CNC(=NN=C(/C=C/c2ccc(C(F)(F)F)cc2)/C=C/c2ccc(C(F)(F)F)cc2)NC1 [HYDRAMETHYLNON]
Ratio (Blattella germanica [2]): 0.6 | Ratio (Blattella germanica [1]): 1

CCCCCCCCCC[C@@H](O)[C@H]1CC[C@H]([C@H]2CC[C@H]([C@H](O)CCCCCCCC[C@@H](O)CC3=C[C@H](C)OC3=O)O2)O1 [PARVIFLORIN]
Ratio (Blattella germanica [2]): 1.5 | Ratio (Blattella germanica [1]): 0.9

CNC(=O)Oc1ccccc1OC(C)C [PROPOXUR]
Ratio (Blattella germanica [2]): 1.7 | Ratio (Blattella germanica [1]): 3.8

CCCCC[C@H](O)CCCC[C@H](O)[C@H]1CC[C@H]([C@H]2CC[C@H]([C@H](O)CCCC[C@H](O)CCCCCCCC3=C[C@H](C)OC3=O)O2)O1 [PURPURENIN]
EC50 (A549): 1.3 µg/mL (≈ 2.03 µM) | EC50 (MIA PaCa-2): 2 µg/mL (≈ 3.13 µM) | EC50 (A498): 1.3 µg/mL (≈ 2.03 µM) | LC50 (Artemia): 2.9 ×10⁻² ug/ml | EC50 (HT-29): 0.32 µg/mL (≈ 0.501 µM) | EC50 (MCF7): 1.7 µg/mL (≈ 2.66 µM) | EC50 (PC-3): 1.1 µg/mL (≈ 1.72 µM)

CCCCCCCCCC[C@@H](O)[C@@H]1CC[C@H]([C@H](O)CC[C@H](O)[C@@H]2CC[C@@H](CCCCCCC[C@@H](O)CC3=C[C@H](C)OC3=O)O2)O1 [SYLVATICIN]
Ratio (Blattella germanica [2]): 3.9 | Ratio (Blattella germanica [1]): 1.7

CCCCCCCCCCCCCCCC[C@@H](O)[C@H](O)CCCCCCCCCCCCCCC1=C[C@H](C)OC1=O [TONKINELIN]
IC50 (HL-60): 1 µg/mL (≈ 1.73 µM) | IC50 (HCT-8): 6.7 µg/mL (≈ 11.6 µM) | IC50 (A2780): > 10 µg/mL | IC50 (KB): > 10 µg/mL

CCCCCCCCCCCC[C@H](O)[C@H]1CC[C@H]([C@H](O)CC(O)CCCCCCCCCC(=O)CCC2=C[C@H](C)OC2=O)O1 (stereo partly drawn) [TONKININ A]
IC50 (HL-60): 0.016 µg/mL (≈ 0.0257 µM) | IC50 (HCT-8): 0.59 µg/mL (≈ 0.947 µM) | IC50 (A2780): > 10 µg/mL | IC50 (KB): > 10 µg/mL

CCCCCCCCCC[C@H](O)[C@H]1CC[C@H]([C@H](O)CC[C@H](O)[C@@H]2CC[C@@H](CCCCC[C@@H](O)CC3=C[C@H](C)OC3=O)O2)O1 [TRILOBALICIN]
ED50 (A549): 5.8 ×10⁻⁸ ug/ml | EC50 (MIA PaCa-2): 0.28 µg/mL (≈ 0.458 µM) | EC50 (A498): 0.006 µg/mL (≈ 0.00982 µM) | LC50 [3]: 5.8 µg/mL (≈ 9.49 µM) | EC50 (HT-29): 2.3 µg/mL (≈ 3.77 µM) | ED50 (MCF7): 1.6 ×10⁻⁷ ug/ml | EC50 (PC-3): 0.98 µg/mL (≈ 1.6 µM)
